In patent US9260435B2, “Substituted imidazopyrazines as Akt kinase inhibitors” (Bayer Intellectual Property GmbH, priority 2012, dated 2016):

Experiments:
[1] = molecular target: His-tagged human recombinant kinase full-length Akt1 (Homo sapiens (Human), UniProt P31749); test: Akt1 kinase assay (TR-FRET); format: biochemical; details: 10 μM ATP, read-out: Akt1, median IC50
Source text: Biological Assay 1.0: Akt1 Kinase Assay
Akt1 inhibitory activity of compounds of the present invention was quantified employing the Akt1 TR-FRET assay as described in the following paragraphs.
(§1) His-tagged human recombinant kinase full-length Akt1 expressed in insect cells was purchased form Invitrogen (part number PV 3599). As substrate for the kinase reaction the biotinylated peptide biotin-Ahx-KKLNRTLSFAEPG (C-terminus in amide form) was used which can be purchased e.g. from the company Biosynthan GmbH (Berlin-Buch, Germany).
(§2) For the assay 50 nl of a 100 fold concentrated solution of the test compound in DMSO was pipetted into a black low volume 384 well microtiter plate (Greiner Bio-One, Frickenhausen, Germany), 2 μl of a solution of Akt1 in assay buffer [50 mM TRIS/HCl pH 7.5, 5 mM MgCl2, 1 mM dithiothreitol, 0.02% (v/v) Triton X-100 (Sigma)] were added and the mixture was incubated for 15 min at 22° C. to allow prebinding of the test compounds to the enzyme before the start of the kinase reaction. Then the kinase reaction was started by the addition of 3 μl of a solution of adenosine-tri-phosphate (ATP, 16.7 μM=>final conc. in the 5 μl assay volume is 10 μM) and substrate (1.67 μM=>final conc. in the 5 μl assay volume is 1 μM) in assay buffer and the resulting mixture was incubated for a reaction time of 60 min at 22° C. The concentration of Akt1 in the assay was adjusted depending of the activity of the enzyme lot and was chosen appropriate to have the assay in the linear range, typical enzyme concentrations were in the range of about 0.05 ng/μl (final conc. in the 5 μl assay volume).
(§3) The reaction was stopped by the addition of 5 μl of a solution of HTRF detection reagents (200 nM streptavidine-XL665 [Cisbio] and 1.5 nM anti-phosho-Serine antibody [Millipore, cat. #35-001] and 0.75 nM LANCE Eu-W 1024 labeled anti-mouse IgG antibody [Perkin Elmer]) in an aqueous EDTA-solution (100 mM EDTA, 0.1% (w/v) bovine serum albumin in 50 mM HEPES/NaOH pH 7.5).
(§4) The resulting mixture was incubated 1 h at 22° C. to allow the binding of the biotinylated phosphorylated peptide to the streptavidine-XL665 and the antibodies. Subsequently the amount of phosphorylated substrate was evaluated by measurement of the resonance energy transfer from the anti-mouse-IgG-Eu-Chelate to the streptavidine-XL665. Therefore, the fluorescence emissions at 620 nm and 665 nm after excitation at 350 nm was measured in a HTRF reader, e.g. a Rubystar (BMG Labtechnologies, Offenburg, Germany) or a Viewlux (Perkin-Elmer). The ratio of the emissions at 665 nm and at […] was taken as the measure for the amount of phosphorylated substrate. The data were normalised (enzyme reaction without inhibitor=0% inhibition, all other assay components but no enzyme=100% inhibition).

[2] = molecular target: His-tagged human recombinant kinase full-length Akt2 (Homo sapiens (Human), UniProt P31751); test: Akt2 kinase assay (TR-FRET); format: biochemical; details: 10 μM ATP, read-out: Akt2, median IC50
Source text: Biological Assay 2.0: Akt2 Kinase Assay
Akt2 inhibitory activity of compounds of the present invention was quantified employing the Akt2 TR-FRET assay as described in the following paragraphs.
as §1, with “full-length Akt2” for “full-length Akt1”, “cells and activated by PDK1” for “cells”, “purchased from” for “purchased form”, “PV 3975).” for “PV 3599).”
as §2, with “Akt2” for “Akt1”, “0.2” for “0.05”
as §3
as §4, with “TR-FRET” for “HTRF”

phospho-AKT at S473 = test: Cellular p-AKT1/2/3-S473 assay in KPL-4 cells; format: cell-based; details: Homo sapiens, KPL4; KPL-4 breast tumour cell line, 2 hours treatment; read-out: pAKT-S743 median IC50
Method: The phospho-substrates of PI3K-AKT-mTOR axis were used as the readouts to reflect pathway inhibition. Cells were seeded at 60-80% confluency per well in 96-well cell culture plates. After overnight incubation at 37° C. 5% CO2, cells were treated with compounds and vehicle at 37° C. for 2 hours. […] All measurements where at least done in duplicates and confirmed by independent repetition. Alternatively pAKT-S473 was measured using the “Akt Duplex” of the MULTI-SPOT® Assay System (Fa. Meso Scale Discovery, Cat# N41100B-1) following manufacturers instructions. Each assay used 20 μg of protein extract and measured total AKT and p-AKT content simultaneously in one well. All measurements where at least done in duplicates and confirmed by independent repetition. Values for P-AKT are expressed as percentage of P-AKT level compared to total-AKT content of the extracts.

[3] = system: KPL-4 breast cancer cell line; test: Tumor cell proliferation assay (CellTiter-Glo, 72 h), KPL-4; format: cell-based; details: Homo sapiens, KPL4, 72 h drug exposure
Method: (§5) Biological Assay 4.0: Tumor Cell Proliferation Assays
(§6) Compounds were tested in a cell-based assay that measures the capacity of the compounds to inhibit tumour cell proliferation following a 72 h drug exposure. Cell viability is determined using CellTiter-Glow® (CTG, Promega, cat# G7571/2/3). The CellTiter-Glo® Luminescent Cell Viability Assay is a homogeneous method to determine the number of viable cells in culture. Detection is based on using the luciferase reaction to measure the amount of ATP from viable cells. The amount of ATP in cells correlates with cell viability. Within minutes after a loss of membrane integrity, cells lose the ability to synthesize ATP, and endogenous ATPases destroy any remaining ATP; thus the levels of ATP fall precipitously.
(§7) Cells were plated at 3000-5000 cells/well (depending on the cell lines) in 90 μL growth medium on MTPs (Corning; #3603, black plate, clear flat bottom). For each cell line assayed, cells were plated onto a separate plate for determination of […] at t=0 hour and t=72 hour time points. Following overnight incubation at 37° C., chemiluminescence values for the t=0 samples were determined after adding 10 μl medium and 100 μl CTG solution according to manufacture protocol. Plates for the t=72 hour time points were treated with compounds diluted into growth medium at ten times final concentration added in 10 μL to the cell culture plate. Cells were then incubated for 72 hours at 37° C. Chemiluminescence values for the t=72 hour samples were determined. […] Experiments were controlled using a reference compound as standard.
(§8) Preferred compounds of the present invention show in this assay an inhibition of cell growth of cell lines such as the KPL-4 breast cancer cell line and the MCF-7 breast tumour cell line ([…], hormone dependent) with a median IC50 of <10 μM, more preferably, median IC50≦1 μM.

p-4E-BP1 at T70 = test: Cellular p-4E-BP1-T70 assay in KPL-4 cells; format: cell-based; details: Homo sapiens, KPL4; KPL-4 breast tumour cell line, 2 hours treatment; read-out: P4EBP1-T70 median IC50
Method: The molecular mechanism of action was investigated in a set of experiments to assess the inhibition of the PI3K-AKT-mTOR pathway in responsive cell lines such as KPL-4 breast tumour cell line (PIK3CA^H1047R, HER2^O/E and hormone independent). The phospho-substrates of PI3K-AKT-mTOR axis were used as the readouts to reflect pathway inhibition. Cells were seeded at 60-80% confluency per well in 96-well cell culture plates. After overnight incubation at 37° C. 5% CO2, cells were treated with compounds and vehicle at 37° C. for 2 hours. Thereafter, cells were lysed in 150 μl lysis buffer and the levels of phospho-AKT at T308 and S473 and p-4E-BP1 at T70 sites were determined with the corresponding AlphaScreen® SureFire® assay kits (Perkin Elmer: 4E-BP1 Assay Kit Cat # TRG4E2S10K; Akt 1/2/3 p-Ser 473 #TGRA4S500 and Akt 1/2/3 p-Thr 308 #TGRA3S500 as well as IgG detection Kit #6760617M) as described in the manuals. All measurements where at least done in duplicates and confirmed by independent repetition. Alternatively pAKT-S473 was measured using the “Akt Duplex” of the MULTI-SPOT® Assay System (Fa. Meso Scale Discovery, Cat# N41100B-1) following manufacturers instructions. Each assay used 20 μg of protein extract and measured total AKT and p-AKT content simultaneously in one well. All measurements where at least done in duplicates and confirmed by independent repetition. Values for P-AKT are expressed as percentage of P-AKT level compared to total-AKT content of the extracts.

[4] = system: MCF-7 breast tumour cell line; test: Tumor cell proliferation assay (CellTiter-Glo, 72 h), MCF-7; format: cell-based; details: Homo sapiens, MCF7, 72 h drug exposure
Method: as §5, §6, §7, §8

Sequence of His-tagged human recombinant kinase full-length Akt1 (P31749 whole entry): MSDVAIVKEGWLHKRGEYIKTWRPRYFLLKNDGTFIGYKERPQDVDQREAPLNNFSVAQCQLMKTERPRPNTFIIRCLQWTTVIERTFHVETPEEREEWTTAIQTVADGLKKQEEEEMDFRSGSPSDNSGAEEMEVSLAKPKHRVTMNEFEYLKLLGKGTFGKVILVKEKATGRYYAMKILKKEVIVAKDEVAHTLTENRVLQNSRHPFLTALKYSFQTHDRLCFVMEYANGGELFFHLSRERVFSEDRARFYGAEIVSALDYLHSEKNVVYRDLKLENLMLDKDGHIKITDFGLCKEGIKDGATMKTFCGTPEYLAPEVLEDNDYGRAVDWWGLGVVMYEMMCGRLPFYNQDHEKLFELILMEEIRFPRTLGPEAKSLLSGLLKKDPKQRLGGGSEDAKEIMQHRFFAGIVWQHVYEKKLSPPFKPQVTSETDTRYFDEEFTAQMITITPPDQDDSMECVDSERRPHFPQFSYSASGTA
Sequence of His-tagged human recombinant kinase full-length Akt2 (P31751 whole entry): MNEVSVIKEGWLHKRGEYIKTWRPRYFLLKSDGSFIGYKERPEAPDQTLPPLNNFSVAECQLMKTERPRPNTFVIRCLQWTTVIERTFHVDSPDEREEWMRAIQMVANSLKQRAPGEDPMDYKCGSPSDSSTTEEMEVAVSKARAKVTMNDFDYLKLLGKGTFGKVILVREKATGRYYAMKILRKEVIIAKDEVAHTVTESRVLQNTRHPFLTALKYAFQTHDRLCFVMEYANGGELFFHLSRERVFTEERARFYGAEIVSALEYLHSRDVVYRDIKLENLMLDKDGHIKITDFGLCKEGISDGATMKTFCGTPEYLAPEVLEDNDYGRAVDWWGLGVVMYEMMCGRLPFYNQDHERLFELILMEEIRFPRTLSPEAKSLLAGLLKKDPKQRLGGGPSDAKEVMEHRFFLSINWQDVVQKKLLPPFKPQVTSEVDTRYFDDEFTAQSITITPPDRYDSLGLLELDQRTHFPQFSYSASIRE

IC50 [1]	IC50 [2]	IC50 (phospho-AKT at S473)	IC50 [3]	IC50 (p-4E-BP1 at T70)	IC50 [4]	SMILES	inhibition at 1.67 µM ([3]; 1.67 μM, read-out: KPL-4 median inhibition at 1.67 μM (%))	inhibition at 1.67 µM ([4]; 1.67 μM, read-out: MCF-7 median inhibition at 1.67 μM (%))
1600 nM	970 nM					NC1(c2ccc(-c3nc4c(O)nccn4c3-c3ccccc3)cc2)CCC1 [Example 1, 2-[4-(1-Aminocyclobutyl)phenyl]-3-phenylimidazo[1,2-a]pyrazin-8-ol]		
		37 nM	10000 nM	29 nM	2400 nM	CCOC(=O)c1cn2c(-c3ccccc3)c(-c3ccc(C4(N)CCC4)cc3)nc2cn1 [Example 5, Ethyl 2-[4-(1-aminocyclobutyl)phenyl]-3-phenylimidazo[1,2-a]pyrazine-6-carboxylate]	15.2%	40.6%
